Results from patent US5767261A, “Lepidopteran GABA gated chloride channel and nucleic acids encoding subunits thereof” (priority 1995, dated 1998).

Columns and labels:
[1] = target: T1, Heliothis virescens cyclodiene resistant chloride channel (Heliothis virescens, UniProt O18468); assay: Two-electrode voltage clamp recordings of Xenopus oocytes injected with pIVY12 mRNA; assay type: cell-based; conditions: for gross effect of known agonist / antagonist on the channel: similar assays
T1 construct: in vitro transcribed pIVY12 mRNA injected into Xenopus oocytes, homomeric channel
T1 sequence (O18468 30-496): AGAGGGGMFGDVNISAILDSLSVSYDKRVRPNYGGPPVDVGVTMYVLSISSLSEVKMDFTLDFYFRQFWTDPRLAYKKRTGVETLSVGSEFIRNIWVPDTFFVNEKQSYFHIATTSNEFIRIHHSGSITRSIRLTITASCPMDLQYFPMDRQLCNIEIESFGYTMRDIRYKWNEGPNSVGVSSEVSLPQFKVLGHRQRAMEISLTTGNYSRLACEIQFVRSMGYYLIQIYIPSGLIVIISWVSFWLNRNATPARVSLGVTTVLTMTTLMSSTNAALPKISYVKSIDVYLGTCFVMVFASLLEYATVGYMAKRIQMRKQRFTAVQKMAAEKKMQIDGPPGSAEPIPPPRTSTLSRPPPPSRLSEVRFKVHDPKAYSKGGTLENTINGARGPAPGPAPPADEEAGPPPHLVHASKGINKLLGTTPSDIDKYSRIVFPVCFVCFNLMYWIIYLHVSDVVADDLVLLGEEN
Protocol: (§1) Messenger RNA was produced from the cDNA template of pIVY12 described in Example I by in vitro transcription with the Ambion mMESSAGE mMACHINE IN VITRO TRANSCRIPTION KIT™ (Ambion, Inc.) The mRNA was injected into oocytes by the following procedure.
(§2) Frogs were anesthetized in a 2 gram/liter solution of 3-amino benzoic acid ethyl ester for thirty minutes, after which oocytes were surgically removed from the abdominal cavity. Follicles were digested by collagenase treatment under sterile conditions by standard methods. Oocytes were injected with 50 nl of mRNA by glass electrodes.
(§3) Following a 24 to 48 hour incubation, two-electrode voltage clamp recordings were made. Recordings were made using a Dagan TEV200 voltage clamp interfaced with a MacLab4 data acquisition system running the MacLab Chart data acquisition/analysis software. Oocytes were positioned under a dissecting scope under constant perfusion with ND-96 standard saline using a Razel syringe perfusion pump, model A99-FY at 93.9 cc/hr. Glass electrodes (A-M Systems, Inc., 1.5 mm×0.86 mm) were filled with 3M KCl and resistance ([…]) was measured to be between 0.7 and 1.5 mega ohms. Both electrodes were inserted into the oocyte at opposite sides, the resting potential was recorded and the voltage clamp turned on. Oocytes were held at a resting potential between -70 and -50 mV. Control responses of GABA were obtained by stopping the perfusion of saline and perfusing with a known concentration of GABA in ND-96 with 0.1% DMSO. The average of several GABA applications was taken as the maximal chloride current for that particular GABA dose. The effect of 10 micromolar GABA on the lepidopteran GABA gated chloride channel expressed in Xenopus oocytes is depicted in FIG. 4. […] In particular, the Heliothis virescens cyclodiene resistant chloride channel is about ten times less sensitive to block by fipronil than the Drosophila Rdl chloride channel.

[2] = target: T2, Heliothis GABA gated chloride channel (Heliothis virescens, UniProt O18468); assay: Whole cell patch clamp recordings of permanently transformed Drosophila SH1 cell lines (pIVY17); assay type: cell-based; conditions: SH1 cells, induced by 10 μM cadmium chloride for 48 hours, FIG. 7
T2 sequence (O18468 30-496): T1 sequence (O18468 30-496)
Excerpt: To verify that expression of cDNA encoding the GABA gated chloride channel subunit results in production of a functional GABA gated chloride channel, hole cell voltage clamp recordings were made at thirty hours post infection. […] The results presented in this example indicate that expression of DNA encoding a lepidopteran GABA gated chloride channel subunit in Sf9 cells results in a functional GABA gated chloride channel.
Drosophila cell line SH1 was transformed with plasmid pIVY17 using lipofectin obtained from GIBCO-BRL following the manufacturer's instructions. Selection of insect cell transformants was accomplished with hygromycin at a concentration of 200 μg/ml. The Heliothis GABA gated chloride channel expression was induced by 10 μM cadmium chloride added to the growth medium for 48 hours prior to electrophysiological readings. Whole cell voltage patch clamping recordings were performed on a number of cell lines as described in Example III.

[3] = target: T3, Heliothis virescens cyclodiene resistant GABA gated chloride channel (Heliothis virescens, UniProt O18468); assay: Whole cell voltage clamp recordings of Sf9 cells infected with recombinant baculovirus Elise13; assay type: cell-based; conditions: 1×10^-3 M GABA, thirty hours post infection, FIG. 3
T3 sequence (O18468 30-496): T1 sequence (O18468 30-496)
Excerpt: A BamHI/XhoI DNA fragment from plasmid pIVY12 described in Example 1 containing the complete coding sequence of the Heliothis virescens cyclodiene resistant GABA gated chloride channel subunit was cloned into the baculovirus transfer vector pBacPac8 (Clontech). The resulting vector, pIVY13, contains cDNA encoding the Heliothis virescens cyclodiene resistant GABA gated chloride channel subunit under the control of the polyhedrin promoter. The 8.0 kb vector, PIVY13, consists of the Heliothis sequence of pIVY12 cloned into the BamHI/XhoI site of pBacPac8 and is depicted in FIG. 2. Spodoptera frugiperda 9 (Sf9) cells were cotransfected by pIVY13 and wild type Autographa californica nuclear polyhedrosis virus (AcMNPV) using the lipofectin procedure. In transfer vector pIVY13, flanking AcMNPV sequences allowed recombination with the viral DNA, thus resulting in the transfer of the expression cassette of the Heliothis cDNA and the polyhedrin promoter to the polyhedrin locus of the viral DNA. The recombinant virus thus generated was designated Elise13. Viral stocks of Elise13 were generated by standard procedures described by O'Reilly et al. (1992) Baculovirus Expression Vectors, A Laboratory Manual, W. H. Freeman and Company. Sf9 cells were infected with Elise13 at a multiplicity of infection of 5 plaque forming units (PFU) per cell by standard procedures. […]

[4] = test system: Heliothis virescens cyclodiene resistant chloride channel; assay: Two-electrode voltage clamp recordings of Xenopus oocytes injected with pIVY12 mRNA; assay type: cell-based; conditions: agonized by GABA
Protocol: as §1, §2, §3

[5] = target: T4, Drosophila Rdl chloride channel (Drosophila melanogaster, UniProt P25123); conditions: 10 micromoles of picrotoxinin; cited from earlier work
T4 sequence (P25123 45-606): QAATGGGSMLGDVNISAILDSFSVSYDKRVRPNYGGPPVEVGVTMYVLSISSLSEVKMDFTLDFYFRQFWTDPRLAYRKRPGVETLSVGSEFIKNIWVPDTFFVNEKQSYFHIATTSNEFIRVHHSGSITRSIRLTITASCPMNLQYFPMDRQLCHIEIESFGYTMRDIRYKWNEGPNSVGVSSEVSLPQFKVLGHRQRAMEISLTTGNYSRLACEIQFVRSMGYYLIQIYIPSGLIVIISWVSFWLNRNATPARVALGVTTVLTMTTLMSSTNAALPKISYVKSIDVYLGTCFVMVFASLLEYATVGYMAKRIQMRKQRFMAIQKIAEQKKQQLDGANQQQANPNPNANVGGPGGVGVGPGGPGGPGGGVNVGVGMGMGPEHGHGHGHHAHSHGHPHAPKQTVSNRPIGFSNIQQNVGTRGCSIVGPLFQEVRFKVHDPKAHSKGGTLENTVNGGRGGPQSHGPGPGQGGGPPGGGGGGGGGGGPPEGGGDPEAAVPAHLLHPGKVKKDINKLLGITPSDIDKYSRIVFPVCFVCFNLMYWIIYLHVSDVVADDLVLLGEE

NCc1cc(=O)[nH]o1 [muscimol]
gross effect of known agonist / antagonist on the channel [1]: exhibited the predicted gross effects

NCCCC(=O)O [GABA, gamma-amino butyric acid]
functional effect on the GABA gated chloride channel (flux of chloride ion) [2]: exhibits the predicted gross functional effect
functional effect on the GABA gated chloride channel (flux of chloride ion) [3]: exhibits the gross functional effect on the GABA gated chloride channel
functional effect on the GABA gated chloride channel ([1]; 10 micromolar GABA, FIG. 4): exhibits the predicted gross functional effect

N#Cc1nn(-c2c(Cl)cc(C(F)(F)F)cc2Cl)c(N)c1[S+]([O-])C(F)(F)F (stereo not drawn) [fipronil]
reduction of sensitivity to block relative to Drosophila Rdl chloride channel [4]: about ten

C=C(C)[C@@H]1[C@H]2OC(=O)[C@@H]1[C@]1(O)C[C@H]3O[C@]34C(=O)O[C@H]2[C@]14C [picrotoxinin]
block of Drosophila Rdl [5]: nearly complete block
block of the Heliothis channel ([1]; 10 micromoles of picrotoxinin): fifty
gross effect of known agonist / antagonist on the channel [1]: exhibited the predicted gross effects
reduction of sensitivity to block relative to Drosophila Rdl chloride channel [4]: more than 100 times
